According to article PMC5842390, “Protection Efficacy of C5A Against Vaginal and Rectal HIV Challenges in Humanized Mice” (The Open Virology Journal, 2018):
pEC50: −log10 of the molar value. Where two headings read alike, the source gives them in different places. Ends that are not written are not given here.

Columns and labels:
[1] = system: HSV; conditions: Vero cells, human dendritic cells, primary genital epithelial cells in vitro, human epidermis ex vivo; cited from earlier work
From the text: Previous studies have shown that C5A inhibits HSV infection of Vero cells, human dendritic cells and primary genital epithelial cells in vitro as well as human epidermis (epidermal sheets) ex vivo, and that it inhibits acyclovir- and ganciclovir-resistant HSV isolates. Remarkably, in an in vitro transwell assay, C5A prevented HIV transmigration by preserving the integrity of the genital epithelium that ...

[2] = macaques vaginally treated with repeated C5A applications; cited from earlier work
From the text: Following these studies with unformulated C5A solutions applied topically, the next goal is to formulate C5A, alone and in combination with other antiretroviral agents, into murine intravaginal rings to evaluate sustained topical delivery approaches for protection against vaginal and rectal HIV challenges. We plan on using a combination of drugs with distinct mechanisms of action.

[3] = system: HIV; conditions: cited from earlier work
From the text: (§1) In the absence of a safe and effective vaccine, there is an imperative demand for effective agents to reduce the 7,000 new HIV infections occurring every day. An attractive possibility is to identify the best drugs and drug combinations, delivered by optimal nBP methods such Intravaginal Rings (IVRs) for vaginal delivery and gels or enemas for rectal protection. We previously reported that C5A, a short, amphipathic, 18 amino acid (SWLRDIWDWICEVLSDFK) helical peptide, inhibits in vitro infectivity of a broad range of primary HIV isolates in various primary target cells. In this study, we ...

[4] = seminal plasma, cervical and vaginal fluids; cited from earlier work
From the text: as §1

[5] = system: simian-human immunodeficiency virus (SHIV-162P3); conditions: vaginal application of C5A; ref 58 (b36 prints ref 57); cited from earlier work
From the text: as §1, with “... || Following these studies with unformulated C5A solutions applied topically, the next goal is to formulate C5A, alone and in combination with other antiretroviral agents, into murine intravaginal rings to evaluate sustained topical delivery approaches for protection against vaginal and rectal HIV challenges. We plan on using a combination of drugs with distinct mechanisms of action.” for “...”

[6] = system: cervical epithelial cells; conditions: at a concentration of 10- to 100-fold greater than that which blocks HIV infection; cited from earlier work
From the text: The short amphipathic helical peptide SWLRDIWDWICEVLSDFK called C5A, was originally identified by the Chisari lab as an active anti-hepatitis C virus (HCV) agent. The C5A amino acid sequence encompasses the region that permits the anchoring of the HCV nonstructural protein 5A (NS5A) into the ER membrane by an in-plane amphipathic alpha-helix (Fig. 1).

[7] = system: HIV JR-CSF; format: in vivo, humanized BLT mice; conditions: for Slope parameter (m) of median-effect plot: median-effect model, analogous to Hill coefficient; for pEC50: sigmoidal dose-response (variable slope) model, 6.25-200 µM, n=10 per concentration
From the text: Humanized BLT mice were created as described previously, by implanting 1-mm^3 pieces of human fetal liver and thymus tissues (Advanced Bioscience Resources) under the kidney capsule of 6- to 8-week-old female NSG mice (Jackson Laboratories) bred at The Scripps Research Institute (TSRI). Each cohort was produced with tissues from a single donor. CD34+ hematopoietic stem and progenitor cells (HSPC) were purified from autologous fetal liver tissue, isolated by magnetic bead selection for CD34+ cells (Miltenyi), phenotyped by flow cytometry, and cryopreserved until injection (200,000-350,000 CD34+ cells) into mice 3 weeks after fetal liver and thymus tissue implantation. Human cell population reconstitution in peripheral blood was confirmed by flow cytometry as described previously. Briefly, the degree of humanization of the BLT mice was evaluated at 20 weeks of age (10 weeks post-CD34+ HSPC injection) by analysis of percentages of human CD45+ cells and human CD45+ CD4+ CD3+ cells in peripheral blood by FACS. Mice with <65% human CD45+ cells and <70% human CD45+ CD4+ CD3+ cells were not used for HIV exposure experiments. Mice were kept at the Department of Animal Resources at TSRI in accordance with protocols approved by the TSRI Institutional Animal Care and Use Committee.
Solutions of C5A peptides were prepared in phosphate buffered saline (PBS). After verifying the reconstitution of mice with human cells, a dose ranging study was conducted to determine the EC50 of C5A for preventing vaginal and rectal HIV infection. Stocks of HIV JR-CSF were prepared as previously described and standardized by p24 ELISA. Prior to inoculation, mice were anesthetized with isoflurane. Aliquots of C5A in PBS (5 µL) were administered vaginally or rectally in decreasing concentrations (200, 100, 50, 25, 12.5 and 6.25 µM; n=10 mice per concentration). Fifteen minutes post-C5A topical administration, mice were challenged (vaginal challenge for vaginal C5A administration, rectal challenge for C5A rectal administration) with HIV.
Infection of BLT mice was analyzed by quantifying HIV RNA levels in peripheral blood (plasma) using one-step reverse transcriptase quantitative real-time PCR (ABI custom TaqMan Assays-by-Design) according to the manufacturer’s instructions. Primers were 5-[…]-3 and 5-TGCTTGATGT CCCCCCACT-3, and MGB-probe 5-FAM-[…]-Q-3, where FAM is 6-carboxyfluorescein [36-38, 40, 42, 44-47, 52-54]. The assay sensitivity was of […] 400 RNA copies per mL.
Data were analyzed using GraphPad Prism (version 7.00, GraphPad Software, Inc., La Jolla, CA). Analytic simulations of dose-response curves using the median-effect principle and mass-action law, and its combination index theorem were carried out using CompuSyn.

**Q.** For SWLRDIWDWICEVLSDFK [C5A], which “Inhibition of HSV infection” value [1] is on record?
**A.** Its value is “efficiently inhibits”.

**Q.** And the “Signs of lesions or inflammation” value [2]?
**A.** Its value is “no signs of lesions or inflammation”.

**Q.** What about the “Antiviral activity between pH 5 and 7” value ([3]; pH 5 to 7) of the same sequence?
**A.** The value was “keeps is antiviral activity”.

**Q.** What about the “Antiviral activity at pH 8” value ([3]; pH 8) of the same sequence?
**A.** Its value is “loses its activity”.

**Q.** What about the “Protection against a vaginal challenge of HIV” value ([3]; topical vaginal administration of 200 µM C5A in PBS, humanized mice) of the same sequence?
**A.** Its value is 100%.

**Q.** What about the “Antiviral activities in genital fluids” value [4] of the same sequence?
**A.** The value was “maintains its antiviral activities”.

**Q.** And the “Macaques protected from SHIV-162P3 challenge” value [5]?
**A.** The value was 89%.

**Q.** And the “Toxicity to cervical epithelial cells” value [6]?
**A.** Its value is “not toxic”.

**Q.** And the “Slope parameter (m) of median-effect plot” value ([7]; rectal compartment)?
**A.** Its value is 7.7 ± 1.2.

**Q.** What about the pEC50 ([7]; rectal dosing, read-out: EC50 for protection against rectal HIV challenge) of the same sequence?
**A.** The pEC50 was 4.59.

**Q.** What about the “Slope parameter (m) of median-effect plot” value ([7]; vaginal compartment) of the same sequence?
**A.** The value was 7.6 ± 1.2.

**Q.** And the pEC50 ([7]; vaginal dosing, read-out: EC50 for protection against vaginal HIV challenge)?
**A.** Its pEC50 is 4.49.
